Assay results reported in US7998995B2 (Exelixis Patent Company LLC, priority 2006, dated 2011).

What was measured:
[1] = system: T1, LXR; assay: Measured EC50 or IC50 for LXR (LXRα and/or LXRβ; assay and subtype not given); conditions: IC50 or EC50 class, subtype not specified
T1 construct: fused on or other part: GST fused to the LBD in the FRET assay
Method: (§1) Measured EC50 or IC50 for LXR, and FXR for Compounds of the Invention
(§2) LXR and FXR activities for various compounds of the invention are presented in the following table; those compounds with EC50 or IC50 values <10 μM for at least one of LXRα, LXRβ or FXR are considered to be active. In the following Table, IC50 or EC50 data is represented as follows: A<1 μM, B=1-10 μm, and C>10 μM.

[2] = molecular target: T2, FXR (Homo sapiens, UniProt Q96RI1); assay: Measured EC50 or IC50 for FXR (assay not given); conditions: IC50 or EC50 class; assay not specified
T2 sequence (Q96RI1 1-472 isoform Q96RI1-2): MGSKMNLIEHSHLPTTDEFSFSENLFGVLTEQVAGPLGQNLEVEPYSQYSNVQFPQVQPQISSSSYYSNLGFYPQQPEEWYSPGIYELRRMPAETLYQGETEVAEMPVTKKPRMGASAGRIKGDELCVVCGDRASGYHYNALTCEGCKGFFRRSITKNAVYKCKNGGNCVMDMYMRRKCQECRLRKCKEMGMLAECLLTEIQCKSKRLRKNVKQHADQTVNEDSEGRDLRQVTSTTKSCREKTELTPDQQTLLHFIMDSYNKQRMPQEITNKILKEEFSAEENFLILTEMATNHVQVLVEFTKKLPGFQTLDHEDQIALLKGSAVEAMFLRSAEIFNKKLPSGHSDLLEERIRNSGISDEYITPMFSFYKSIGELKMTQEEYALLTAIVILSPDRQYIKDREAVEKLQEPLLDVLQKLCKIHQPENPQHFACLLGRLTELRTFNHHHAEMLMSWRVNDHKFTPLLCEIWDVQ
Method: as §1, §2

Compound | EC50 [1] [nM] | EC50 [2] [nM]
Cc1cc(-n2nc(C(C)(C)O)c(Cl)c2-c2c(F)cccc2Cl)ccc1-c1cccc(S(C)(=O)=O)c1 [Example 971, 2-{4-chloro-4-(2-chloro-6-fluoropehnyl)-1-[2-methyl-3′-(methylsulfonyl)biphenyl-4-yl]-1H-pyrazol-3-yl}propan-2-ol] | < 1000 | 1000 to 10000
Cc1cc(-n2nc(C(C)(C)O)c(Cl)c2-c2c(Cl)cccc2Cl)ccc1-c1cccc(S(C)(=O)=O)c1 [Example 972, 2-{4-chloro-5-(2,6-dichlorophenyl)-1-[2-methyl-3′-(methylsulfonyl)biphenyl-4-yl]-1H-pyrazol-3-yl}propan-2-ol] | 1000 to 10000 | 1000 to 10000
